According to patent publication US10717731B2, “Nitrogen-containing aromatic heterocyclic compound” (MITSUBISHI TANABE PHARMA CORPORATION, priority 2015, dated 2020):

molecular target: T1, human CYP11B2 (Homo sapiens, UniProt P19099); experiment: Inhibitory effect on hCYP11B2: aldosterone production in mitochondrial fraction of V79 cells stably expressing human CYP11B2, HTRF; format: biochemical; conditions: 0.5 μmol/L deoxycorticosterone, 150 μmol/L NADPH, 1.5-2 hours at room temperature
T1 construct: expressed in transfected cells; mitochondrial fraction
T1 sequence (P19099 25-503): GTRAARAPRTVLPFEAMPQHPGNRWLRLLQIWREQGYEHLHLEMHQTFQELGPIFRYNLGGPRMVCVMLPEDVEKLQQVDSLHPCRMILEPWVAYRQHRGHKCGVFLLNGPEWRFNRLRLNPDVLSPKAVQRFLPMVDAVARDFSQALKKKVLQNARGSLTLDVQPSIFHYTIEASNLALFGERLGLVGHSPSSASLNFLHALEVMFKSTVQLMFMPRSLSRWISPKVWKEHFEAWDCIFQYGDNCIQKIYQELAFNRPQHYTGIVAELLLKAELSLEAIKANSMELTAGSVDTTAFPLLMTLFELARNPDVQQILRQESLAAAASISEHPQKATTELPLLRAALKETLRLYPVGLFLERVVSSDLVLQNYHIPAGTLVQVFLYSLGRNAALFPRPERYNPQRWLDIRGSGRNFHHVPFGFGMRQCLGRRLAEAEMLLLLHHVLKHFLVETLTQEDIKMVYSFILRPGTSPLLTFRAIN
Protocol: Experimental Example 1 (Inhibitory Effect on hCYP11B2)
The pcDNA3.1-human CYP11B2 plasmid was transfected into a Chinese hamster lung fibroblast V79 cell line to produce a cell line stably expressing human CYP11B2 gene.
The cells were cultured and grown in the Dulbecco's modified Eagle's/Ham's medium supplemented with 10% fetal bovine serum and 1% G418 disulfate solution under the environment of 37° C., 95% air, and 5% CO2, and the grown cells were harvested.
Then, the cells were fractionated to obtain mitochondria by reference to a method described in Chabre et al. JCE & M 85 (11) 4060-68, 2000. In particular, the cells suspended in a 5 mmol/L Tris-HCl buffer (pH 7.4) containing 250 mmol/L sucrose were homogenized in a Teflon (Registered Trademark) Potter Elvehjem homogenizer, and then the suspension was centrifuged (800×g, 15 min.). The supernatant was separated and again centrifuged (10000×g, 15 min.) to obtain a pellet (mitochondrial fraction).
The mitochondrial fraction diluted with a buffer containing 10 mmol/L KH2PO4, 10 mmol/L Tris, 20 mmol/L KCl, 25 mmol/L sucrose, 5 mmol/L MgCl2, and 0.05% bovine serum albumin was dispensed to a 96-well plate. 0.5 μmol/L Deoxycorticosterone, 150 μmol/L NADPH and a compound of each concentration were added to each well, and incubated for 1.5-2 hours at room temperature to produce aldosterone. An amount of the produced aldosterone in the incubated solution was determined by using HTRF (Homogeneous Time Resolved Fluorescence) method.
IC50 (nmol/L) was calculated by analyzing the aldosterone production inhibition rate (%) of each concentration of compounds by non-linear regression to a logistic curve.

| IC50 [nM] | SMILES |
| --- | --- |
| 5.1 | CN(C)[C@H]1CC[C@H](NC(=O)CN2CCN(c3cncc(-c4ccc(F)cc4)n3)CC2)CC1 [Example 31] |
| 41 | COc1ccccc1-c1cnnc(N2CCN(CC(=O)N[C@H]3CC[C@@H](N(C)C)CC3)CC2)c1 [Example 75] |
| 8.4 | CC(C)NC(=O)CN1CCN(c2cc(-c3ccc4ccccc4c3)cnn2)CC1 [Example 86] |
| 13 | Cn1ncc2cc(-c3cncc(N4CCN(CC(=O)N[C@H]5CC[C@@H](C(C)(C)O)CC5)CC4)n3)ccc21 [Example 30] |
| 8.7 | CN(C)[C@H]1CC[C@@H](NC(=O)CN2CCN(c3cncc(-c4ccc(Cl)cc4)n3)CC2)CC1 [Example 38] |
| 2.2 | CC(C)NC(=O)CN1CCN(c2cncc(-c3ccc4c(c3)CCO4)n2)CC1 [Example 55] |
| 41 | C[C@@H]1CN(c2cncc(-c3ccc(C(F)(F)F)cc3)n2)CCN1CC(=O)N[C@H]1CC[C@](C)(O)CC1 [Example 43] |
| 76 | O=C(CN1CCN(c2cc(-c3ccc(Cl)cc3)cnn2)CC1)NC1CCNCC1O (single isomer, unassigned) [Example 90b] |
| 37 | Cn1ncc2cc(-c3cncc(N4CCN(CC(=O)N[C@H]5CC[C@@H](N(C)C)CC5)CC4)n3)ccc21 [Example 29] |
| 19 | Cn1ncc2ccc(-c3cncc(N4CCN(CC(=O)N[C@H]5CC[C@@H](CO)CC5)CC4)n3)cc21 [Example 22] |
| 28 | Cc1ccc(-c2cncc(N3CCN(CC(=O)NCC4(O)CCN(C)CC4)CC3)n2)cc1 [Example 21] |
| 16 | Cc1ccccc1-c1cnnc(N2CCN(CC(=O)N[C@H]3CC[C@H](N4CCOCC4)CC3)CC2)c1 [Example 57] |
| 21 | CN(C)[C@H]1CC[C@H](NC(=O)CN2CCN(c3cc(-c4ccc(F)cc4)cnn3)CC2)CC1 [Example 79] |
| 7 | CC(C)NC(=O)CN1CCN(c2cc(-c3ccc(F)cc3)cnn2)CC1 [Example 85] |
| 20 | C[C@@H]1CN(c2cncc(-c3ccc(C(F)(F)F)cc3)n2)CCN1CC(=O)NCC(C)(C)O [Example 45] |
| 17 | CC(C)NC(=O)CN1CCN(c2cncc(-c3ccc(C(F)(F)F)cc3)n2)C[C@H]1C [Example 51] |

| IC50 [nM] | SMILES |
| --- | --- |
| 18 | CC(C)NC(=O)CN1CCN(c2cc(-c3ccc(C(F)(F)F)cc3)cnn2)CC1 [Example 87] |
| 20 | Cc1ccc(-c2cnnc(N3CCN(CC(=O)N[C@@H]4CCOC[C@@H]4O)CC3)c2)cc1 [Example 58] |
| 18 | CNC(=O)CN1CCC(NC(=O)CN2CCN(c3cc(-c4ccc(F)cc4)cnn3)CC2)CC1 [Example 73] |
| 4 | O=C(CN1CCN(c2cncc(-c3ccc(Cl)cc3)n2)CC1)NN1CCCC1 [Example 40] |
| 7.8 | CC(C)(C)OC(=O)N1CC[C@@H](NC(=O)CN2CCN(c3cc(-c4ccc(F)cc4)cnn3)CC2)[C@H](F)C1 [Example 88] |
| 4.9 | Cc1ccccc1-c1cncc(N2CCN(CC(=O)N[C@H](CO)C(C)C)CC2)c1 [Example 8] |
| 14 | CC(C)NC(=O)CN1CCN(c2cc(-c3ccc4c(c3)CCO4)cnn2)CC1 [Example 82] |
| 56 | C[C@@H]1CN(c2cncc(-c3ccc(C(F)(F)F)cc3)n2)CCN1CC(=O)N[C@@H](C)C(C)(C)O [Example 44] |
| 10 | CO[C@H]1CC[C@@H](NC(=O)CN2CCN(c3cncc(-c4ccc5c(cnn5C)c4)n3)CC2)CC1 [Example 28] |
| 42 | CN1CCC(NC(=O)CN2CCN(c3cncc(-c4ccc5cnn(C)c5c4)n3)CC2)CC1 [Example 27] |
| 17 | CC1CCC(c2cncc(N3CCN(CC(=O)NC(C)C)CC3)c2)CC1 (stereo not shown) [Example 17] |
| 33 | O=C(CN1CCN(c2cc(-c3ccc(Cl)cc3)cnn2)CC1)NC1CCNCC1O (single isomer, unassigned) [Example 90a] |
| 11 | CC(C)NC(=O)CN1CCN(c2cncc(-c3ccc4c(c3)CCO4)c2)CC1 [Example 13] |
| 18 | Cc1ccc(-c2cnnc(N3CCN(CC(=O)NC[C@H]4CN(C)CCO4)CC3)c2)cc1 [Example 60] |
| 16 | Cn1ncc2ccc(-c3cncc(N4CCN(CC(=O)NN5CCCC5)CC4)n3)cc21 [Example 54] |
